Source: PubChem BioAssay (NCI)
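Compound exposure: 48 hours, 5 concentrations, 96-well plates. Definition used: TGI = concentration required for complete inhibition of growth.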

Columns and labels:
Test in all cases: DTP human tumour cell line panel, 48 h
[1] = system: RXF 393 renal
[2] = system: HCT-15 colon
[3] = system: UACC-62 melanoma
[4] = system: OVCAR-5 ovarian
[5] = system: CAKI-1 renal
[6] = system: SW-620 colon
[7] = system: NCI-H522 lung
[8] = system: LOX IMVI melanoma
[9] = system: SF-295 CNS
[10] = system: PC-3 prostate
[11] = system: OVCAR-8 ovarian
[12] = system: HS 578T breast
[13] = system: NCI/ADR-RES ovarian
[14] = system: SK-MEL-28 melanoma
[15] = system: MOLT-4 leukemia
[16] = system: MCF7 breast
[17] = system: IGROV1 ovarian
[18] = system: HOP-62 NSCLC
[19] = system: SR leukemia
[20] = system: SNB-75 CNS
[21] = system: UACC-257 melanoma
[22] = system: 786-0 renal
[23] = system: SK-MEL-5 melanoma
[24] = system: HL-60(TB) leukemia
[25] = system: HCT-116 colon
[26] = system: RPMI-8226 leukemia
[27] = system: COLO 205 colon
[28] = system: SK-MEL-2 melanoma
[29] = system: MDA-N
[30] = system: MDA-MB-231 breast
[31] = system: UO-31 renal
[32] = system: SF-268 CNS
[33] = system: EKVX NSCLC
[34] = system: U251 CNS
[35] = system: TK-10 renal
[36] = system: A549 NSCLC
[37] = system: DU-145 prostate
[38] = system: OVCAR-4 ovarian
[39] = system: SF-539 CNS
[40] = system: NCI-H23 lung
[41] = system: HT29 colon
[42] = system: MALME-3M melanoma
[43] = system: ACHN renal
[44] = system: T-47D breast
[45] = system: SN12C renal
[46] = system: A498 renal
[47] = system: SK-OV-3 ovarian
[48] = system: BT-549 breast
[49] = system: MDA-MB-435
[50] = system: CCRF-CEM leukemia
[51] = system: M14 melanoma
[52] = system: OVCAR-3 ovarian
[53] = system: K-562 leukemia
[54] = system: KM12 colon
[55] = system: HCC-2998 colon
[56] = system: NCI-H460 lung
[57] = system: NCI-H226 lung

With `OC1(c2ccccc2)CC2CCC(C1)N2CCCC1(c2ccc(F)cc2)OCCO1` (centres undefined) the TGI [1] was > 100 µM, the TGI [2] was > 100 µM and the TGI [3] was > 100 µM. The TGI [4] was > 100 µM, the TGI [5] was > 100 µM and the TGI [6] was > 100 µM. For the same compound, the TGI [7] was > 100 µM, the TGI [8] was > 100 µM and the TGI [9] was 10.9 µM. For the same compound, the TGI [10] was > 100 µM, the TGI [11] was 30.2 µM and the TGI [12] was > 100 µM. The TGI [13] was 29.1 µM, the TGI [14] was > 100 µM and the TGI [15] was > 100 µM. The TGI [16] was > 100 µM, the TGI [17] was > 100 µM and the TGI [18] was > 100 µM. The TGI [19] was > 100 µM, the TGI [20] was > 100 µM and the TGI [21] was 73.5 µM. For the same compound, the TGI [22] was 32.4 µM, the TGI [23] was 44.3 µM and the TGI [24] was > 100 µM. The TGI [25] was > 100 µM, the TGI [26] was > 100 µM and the TGI [27] was > 100 µM. For the same compound, the TGI [28] was > 100 µM, the TGI [29] was > 100 µM and the TGI [30] was > 100 µM. The TGI [31] was > 100 µM, the TGI [32] was > 100 µM and the TGI [33] was > 100 µM. For the same compound, the TGI [34] was > 100 µM, the TGI [35] was > 100 µM and the TGI [36] was > 100 µM. The TGI [37] was > 100 µM, the TGI [38] was > 100 µM and the TGI [39] was > 100 µM. The TGI [40] was > 100 µM, the TGI [41] was > 100 µM and the TGI [42] was > 100 µM. For the same compound, the TGI [43] was > 100 µM, the TGI [44] was > 100 µM and the TGI [45] was > 100 µM. For the same compound, the TGI [46] was > 100 µM, the TGI [47] was > 100 µM and the TGI [48] was > 100 µM. For the same compound, the TGI [49] was > 100 µM, the TGI [50] was > 100 µM and the TGI [51] was 44.9 µM. For the same compound, the TGI [52] was > 100 µM and the TGI [53] was > 100 µM.

For `CCOC(=O)C(/C=N\C(=S)Nc1ccc(Cl)c(Cl)c1)=C(/O)c1ccccc1`, the TGI [1] was > 100 µM, the TGI [2] was > 100 µM and the TGI [3] was > 100 µM. For the same compound, the TGI [4] was > 100 µM, the TGI [5] was 84.9 µM and the TGI [6] was > 100 µM. For the same compound, the TGI [7] was 26.1 µM, the TGI [8] was > 100 µM and the TGI [9] was > 100 µM. The TGI [10] was > 100 µM, the TGI [11] was > 100 µM and the TGI [12] was 10.5 µM. The TGI [13] was > 100 µM, the TGI [14] was > 100 µM and the TGI [15] was > 100 µM. The TGI [16] was > 100 µM, the TGI [17] was > 100 µM and the TGI [54] was > 100 µM. The TGI [18] was > 100 µM, the TGI [19] was > 100 µM and the TGI [20] was 55.9 µM. The TGI [21] was > 100 µM, the TGI [22] was > 100 µM and the TGI [23] was > 100 µM. For the same compound, the TGI [55] was 60.4 µM, the TGI [24] was > 100 µM and the TGI [25] was > 100 µM. The TGI [27] was > 100 µM, the TGI [28] was 77.1 µM and the TGI [29] was > 100 µM. For the same compound, the TGI [30] was 90.9 µM, the TGI [31] was 16.6 µM and the TGI [32] was > 100 µM. The TGI [33] was > 100 µM, the TGI [34] was > 100 µM and the TGI [36] was > 100 µM. The TGI [37] was > 100 µM, the TGI [38] was > 100 µM and the TGI [40] was > 100 µM. The TGI [56] was > 100 µM, the TGI [41] was > 100 µM and the TGI [42] was > 100 µM. For the same compound, the TGI [43] was > 100 µM, the TGI [44] was > 100 µM and the TGI [45] was > 100 µM. The TGI [46] was 20.4 µM, the TGI [47] was > 100 µM and the TGI [49] was 93.5 µM. For the same compound, the TGI [50] was > 100 µM, the TGI [51] was > 100 µM and the TGI [57] was > 100 µM.
